Measurements from patent US8835403B2, “Algin oligosaccharides and the derivatives thereof as well as the manufacture and the use of the same” (priority 2004, dated 2014).

Legend:
[1] = tested on: AD mice induced by Aβ1-40; test: Morris water maze test of AD mice induced by Aβ1-40; format: in vivo; details: for Escape latency (s) 1st day: 1st day of test; for Escape latency (s) 2nd day: 2nd day of test; for Escape latency (s) 3rd day: 3rd day of test; for Latency bias(%): probe trial, 4th day, within 60 s
Procedure: Male Balb/c mice (18-22 g, purchased from Laboratory Centre of Shandong University) are weighed and randomly assigned to six groups as follows: a control group, a model group, a low-concentration (15 mg/kg) 6-mer-treated group, a middle-concentration (30 mg/kg) 6-mer-treated group, a high-concentration (60 mg/kg) 6-mer-treated group, and a Huperzine A-treated (HBY, with a concentration of 0.2 mg/kg) group. The mice were oral administered with corresponding drugs on day 3 after grouping. The drugs were administered once a day consecutively with a dosage of 0.5 ml/20 g until the experiment is completed. The mice of control and model groups were simultaneously administered with an equivalent amount of normal saline.
On the 8th day after drug administration, mice are injected with aged Aβ1-40 except the vehicle group as the method of reference (Jhoo J H et al., β-amyloid (1-42)-induced learning and memory deficits in mice: involvement of oxidative burdens in the hippocampus and cerebral cortex. Behavioural Brain Research (2004) 155: 185-196) to induce the AD model. Aged Aβ1-40 solution is injected into the right cerebral ventricle. […] However, on the 1st day of test, this increased escape latency is shortened in all drug-treated groups except the group treated with 15 mg/kg of 6-mer. And the escape latency of 60 mg/kg 6-mer-treated group has statistical significance compared with that of the model group (P<0.05). On the 2nd and 3rd day of test, the escape latency of all drug-treated groups are shortened, wherein that of 60 mg/kg 6-mer-treated group and HBY-treated group have statistical significance compared with that of the model group (P<0.05).
On the 4th day of Morris water maze test, the original plate is removed and the percentage of time of mice staying at the phase of original plate within 60 s is recorded.

MDA = MDA content of cerebral cortex and hippocampus of Aβ1-40-induced AD mice; format: in vivo
Na+, K+-ATPase = Na+, K+-ATPase activity in cerebral cortex and hippocampus of Aβ1-40-induced AD mice; format: in vivo
Procedure: Following the behavioral test, rats are decapitated. Cerebral cortex and hippocampus are dissected on ice immediately, and stored at −80° C. after quick freezing in liquid nitrogen for 1 hour. MDA, SOD, GSH-PX, Na^+, K^+-ATPase, AchE and CHAT activities in the brain regions are determined using the respective kits. The homogenates of cerebral cortex and hippocampus are prepared with saline with a final concentration of 10% and 5%. The supernatant were obtained after centrifuging at 3600 rpm to test MDA, CuZn-SOD, GSH-PX, Na^+K^+-ATPase, AchE, and CHAT activities. The activity of ChAT is determined with isotope-labeled method. The other indexes and amount of total proteins are tested with the respective kits supplied by Nanjing Jiancheng Bioengineering Institute.

SH-SY5Y cells = test: Apoptosis of SH-SY5Y induced by Aβ25-35 (propidium iodide flow cytometry); format: cell-based; details: 30 μM aged Aβ25-35 48 h, Aβ alone 24.8±1.9%
Procedure: SH-SY5Y cells are incubated in 6-well plates at a density of 2×10^5 cells per well. The day after plating, cells are pretreated with varying concentrations (0, 50, 100 μg/ml) of 6-mer for 24 h, followed by the addition of 30 μM aged Aβ25-35 (purchased from Sigma. Co.). After 48 h at 37° C., cells are digested, collected, washed, centrifuged at 1200 rpm and incubated with […] of a mixture of 5 mg/ml propidium iodide (Hyclone Co.) and 100 U/ml RNase (Hyclone Co.). Then the cells are measured by flow cytometry (BD Co., US), with 8000 cells per sample

[2] = tested on: apoptotic cascade induced by Aβ; test: Apoptotic cascade markers induced by Aβ; format: cell-based
Aβ1-40 [3] = target: T1, Aβ1-40 (Homo sapiens, UniProt P05067); test: Fibril formation of Aβ1-40, Th-T fluorescence; format: biochemical; details: 24 h
T1 sequence (P05067 672-711 limits assumed): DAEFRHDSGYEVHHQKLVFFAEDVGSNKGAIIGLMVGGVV
Procedure: Fresh Aβ1-40 is incubated alone or with 6-mer (final concentration of 10, 50, and 100 μg/ml, respectively) at 37° C. for 24 h. After incubation, Th-T is added and fluorescence intensity is monitored at […].

Aβ1-40 fibril = Aβ1-40 fibril (Homo sapiens, UniProt P05067); test: Destability of preformed Aβ1-40 fibril (TEM); format: biochemical; details: Aβ1-40 aged 7 d, then 6-mer for additional 3 days (FIG. 10C)
Aβ1-40 fibril, sequence (P05067 672-711 limits assumed): as above
Procedure: 1 mg/ml of distilled water-resolved Aβ1-40 is aged at 37° C. for 7d, after which it is exposed to 6-mer for 3 days.

Aβ1-40 [4] = target: T1, Aβ1-40; test: SPR interaction of immobilized 6-mer and aged Aβ1-40; format: binding
Procedure: SPR technique (BIAcore X, Uppsala, Sweden) is used to characterize the interaction of 6-mer and Aβ. Different degree of aged Aβ1-40 (aged for 0, 0.5, 1, 2, 4, 6 d at 37° C.) in HBS EP buffer solution (0.01 […], 150 mmol/L NaCl, 3.4 mmol/L EDTA-Na2, 0.005 vol % Tween-20, pH 7.4) with 5 concentrations are flowed through the 6-mer-immobilized sensor chip. The flow rate is 5 μl/min, and the injection volume is 10 μl. The binding sensorgramm is recorded and the sensor chip is regenerated with 2M NaCl.

Aβ = Aβ (Homo sapiens, UniProt P05067); test: Binding site of 6-mer on Aβ (further studies)

For `O=C(O)C1OC(OC2C(C(=O)O)OC(OC3C(C(=O)O)OC(OC4C(C(=O)O)OC(OC5C(C(=O)O)OC(OC6C(C(=O)O)OC(O)C(O)C6O)C(O)C5O)C(O)C4O)C(O)C3O)C(O)C2O)C(O)C(O)C1O` (centres unmarked) [6-mer, mannuronic hexasaccharide], the “Escape latency (s) 1st day” value ([1]; 6-mer 15 mg/kg oral once a day) was 90.07 ± 10.71 s, the “Escape latency (s) 2nd day” value ([1]; 6-mer 15 mg/kg oral once a day) was 83.29 ± 9.53 s and the “Escape latency (s) 3rd day” value ([1]; 6-mer 15 mg/kg oral once a day) was 72.83 ± 12.50 s. For the same molecule, the “Escape latency (s) 1st day” value ([1]; 6-mer 30 mg/kg oral once a day) was 77.71 ± 8.69 s, the “Escape latency (s) 2nd day” value ([1]; 6-mer 30 mg/kg oral once a day) was 71.69 ± 10.11 s and the “Escape latency (s) 3rd day” value ([1]; 6-mer 30 mg/kg oral once a day) was 68.45 ± 14.46 s. The “Escape latency (s) 1st day” value ([1]; 6-mer 60 mg/kg oral once a day) was 56.92 ± 9.92 s, the “Escape latency (s) 2nd day” value ([1]; 6-mer 60 mg/kg oral once a day) was 63.57 ± 10.54 s and the “Escape latency (s) 3rd day” value ([1]; 6-mer 60 mg/kg oral once a day) was 62.50 ± 13.10 s. The “Latency bias(%)” value ([1]; 15 mg/kg) was 19.67 ± 5.15%, the “Latency bias(%)” value ([1]; 30 mg/kg) was 22.99 ± 5.79% and the “Latency bias(%)” value ([1]; 60 mg/kg) was 28.44 ± 6.08 %. The “MDA content (nmol/ml) cerebral cortex” value (MDA; 15 mg/kg) was 1.79 ± 0.15 nmol/mL, the “MDA content (nmol/ml) cerebral cortex” value (MDA; 30 mg/kg) was 1.87 ± 0.18 nmol/mL and the “MDA content (nmol/ml) cerebral cortex” value (MDA; 60 mg/kg) was 1.47 ± 0.11 nmol/mL. The “MDA content (nmol/ml) hippocampus” value (MDA; 15 mg/kg) was 4.28 ± 0.82 nmol/mL, the “MDA content (nmol/ml) hippocampus” value (MDA; 30 mg/kg) was 2.48 ± 0.43 nmol/mL and the “MDA content (nmol/ml) hippocampus” value (MDA; 60 mg/kg) was 2.18 ± 0.43 nmol/mL. The “ATPase activity (μmol Pi/mg prot./hour) cerebral cortex” value (Na+, K+-ATPase; 15 mg/kg) was 1.08 ± 0.06 μmol Pi/mg prot./hour, the “ATPase activity (μmol Pi/mg prot./hour) cerebral cortex” value (Na+, K+-ATPase; 30 mg/kg) was 1.09 ± 0.08 μmol Pi/mg prot./hour and the “ATPase activity (μmol Pi/mg prot./hour) cerebral cortex” value (Na+, K+-ATPase; 60 mg/kg) was 1.08 ± 0.05 μmol Pi/mg prot./hour. For the same molecule, the “ATPase activity (μmol Pi/mg prot./hour) hippocampus” value (Na+, K+-ATPase; 15 mg/kg) was 2.10 ± 0.29 μmol Pi/mg prot./hour, the “ATPase activity (μmol Pi/mg prot./hour) hippocampus” value (Na+, K+-ATPase; 30 mg/kg) was 2.07 ± 0.23 μmol Pi/mg prot./hour and the “ATPase activity (μmol Pi/mg prot./hour) hippocampus” value (Na+, K+-ATPase; 60 mg/kg) was 2.52 ± 0.25 μmol Pi/mg prot./hour. The “percentage of hypodiploid cells” value (SH-SY5Y cells; 50 μg/ml 6-mer 24 h pretreatment) was 10.2±1.3%, the “percentage of hypodiploid cells” value (SH-SY5Y cells; 100 μg/ml 6-mer 24 h pretreatment) was 5.1±0.7% and the “expression of Bcl-2” value [2] was “up-regulating”. For the same molecule, the “expression of Caspase-3” value [2] was “down-regulating”, the “expression of P53” value [2] was “down-regulating” and the “overload of intracellular calcium ion and ROS accumulation” value [2] was “reversing”. The Th-T fluorescence intensity (Aβ1-40 [3]; 10 μg/ml 6-mer with fresh Aβ1-40, 37° C.) was 10.46±0.94, the Th-T fluorescence intensity (Aβ1-40 [3]; 50 μg/ml 6-mer with fresh Aβ1-40, 37° C.) was 9.18±1.32 and the Th-T fluorescence intensity (Aβ1-40 [3]; 100 μg/ml 6-mer with fresh Aβ1-40, 37° C.) was 7.81±1.38. For the same molecule, the “effect on preformed Aβ1-40 fibers (TEM)” value (Aβ1-40 fibril) was “turned into small irregular short fibers”, the Kd (Aβ1-40 [4]; Aβ1-40 aged 0.5 d at 37° C.) was 107 nM and the Kd (Aβ1-40 [4]; Aβ1-40 aged 1 d at 37° C.) was 90.6 nM. The Kd (Aβ1-40 [4]; Aβ1-40 aged 2 d at 37° C.) was 54.3 nM, the Kd (Aβ1-40 [4]; Aβ1-40 aged 4 d at 37° C.) was 21.5 nM and the Kd (Aβ1-40 [4]; Aβ1-40 aged 6 d at 37° C.) was 14.5 nM. For the same molecule, the Kd (Aβ1-40 [4]; fresh Aβ1-40 (aged 0 d)) was 685 nM and the “binding site on Aβ25-35” value (Aβ) was “Ser26˜Lys28”.
